Data from PubChem BioAssay (NCI).
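Exposure lasted 48 hours, with cells grown in 96-well plates and compounds tested at five concentrations. Here, GI50 denotes the concentration required for 50% inhibition of growth. TGI is the concentration that stops growth completely.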

Tests used:
Experiment in all cases: NCI-60 cell line screen, 48 h
[1] = system: TK-10 renal
[2] = system: IGROV1 ovarian
[3] = system: OVCAR-5 ovarian
[4] = system: DU-145 prostate
[5] = system: SF-268 CNS
[6] = system: SW-620 colon
[7] = system: A498 renal
[8] = system: LOX IMVI melanoma
[9] = system: SR leukemia
[10] = system: MALME-3M melanoma
[11] = system: SNB-75 CNS
[12] = system: OVCAR-4 ovarian
[13] = system: CCRF-CEM leukemia
[14] = system: U251 CNS
[15] = system: SN12C renal
[16] = system: MDA-MB-435
[17] = system: MCF7 breast
[18] = system: SK-MEL-2 melanoma
[19] = system: T-47D breast
[20] = system: RPMI-8226 leukemia
[21] = system: SF-295 CNS
[22] = system: SK-MEL-5 melanoma
[23] = system: K-562 leukemia
[24] = system: ACHN renal
[25] = system: 786-0 renal
[26] = system: CAKI-1 renal
[27] = system: NCI-H522 lung
[28] = system: HCT-116 colon
[29] = system: EKVX NSCLC
[30] = system: KM12 colon
[31] = system: COLO 205 colon
[32] = system: NCI-H460 lung
[33] = system: SNB-19 CNS
[34] = system: HCC-2998 colon
[35] = system: BT-549 breast
[36] = system: RXF 393 renal
[37] = system: A549 NSCLC
[38] = system: OVCAR-8 ovarian
[39] = system: NCI-H226 lung
[40] = system: HL-60(TB) leukemia
[41] = system: HOP-62 NSCLC
[42] = system: SF-539 CNS
[43] = system: NCI/ADR-RES ovarian
[44] = system: UACC-257 melanoma
[45] = system: NCI-H23 lung
[46] = system: HT29 colon
[47] = system: MDA-MB-231 breast
[48] = system: PC-3 prostate
[49] = system: UACC-62 melanoma
[50] = system: M14 melanoma
[51] = system: HS 578T breast
[52] = system: UO-31 renal
[53] = system: SK-MEL-28 melanoma
[54] = system: SK-OV-3 ovarian
[55] = system: HOP-92 NSCLC
[56] = system: MOLT-4 leukemia
[57] = system: HCT-15 colon

With NC(=S)n1c(=O)n(-c2cccc(C(F)(F)F)c2)c(=O)c2cc(-c3ccc(F)cc3F)ccc21 the GI50 [1] was 4.05 µM, the TGI [1] was 8.47 µM and the GI50 [2] was 1990 nM. It also gave a TGI [2] of 13 µM, a GI50 [3] of 3.54 µM and a TGI [3] of 17.5 µM. The GI50 [4] was 2740 nM, the TGI [4] was 13.7 µM and the GI50 [5] was 2000 nM. It also gave a TGI [5] of 11.3 µM, a GI50 [6] of 1600 nM and a TGI [6] of 4.2 µM. The GI50 [7] was 341 nM, the TGI [7] was 1220 nM and the GI50 [8] was 1540 nM. It also gave a TGI [8] of 3.17 µM, a GI50 [9] of 984 nM and a TGI [9] of 5.15 µM. It also gave a GI50 [10] of 1510 nM, a TGI [10] of 4.95 µM and a GI50 [11] of 1500 nM. For the same compound, the TGI [11] was 5.17 µM, the GI50 [12] was 2390 nM and the TGI [12] was 22.5 µM. It also gave a GI50 [13] of 2270 nM, a TGI [13] of 11.5 µM and a GI50 [14] of 1740 nM. It also gave a TGI [14] of 9.31 µM, a GI50 [15] of 1260 nM and a TGI [15] of 6.3 µM. It also gave a GI50 [16] of 1560 nM, a TGI [16] of 5.46 µM and a GI50 [17] of 1700 nM. For the same compound, the TGI [17] was 8.18 µM, the GI50 [18] was 590 nM and the TGI [18] was 2.35 µM. For the same compound, the GI50 [19] was 1540 nM, the TGI [19] was 6.09 µM and the GI50 [20] was 575 nM. For the same compound, the TGI [20] was 3.11 µM, the GI50 [21] was 1750 nM and the TGI [21] was 3.62 µM. It also gave a GI50 [22] of 333 nM, a TGI [22] of 1140 nM and a GI50 [23] of 725 nM. For the same compound, the TGI [23] was 14.1 µM, the GI50 [24] was 2270 nM and the TGI [24] was 10.5 µM. It also gave a GI50 [25] of 2000 nM, a TGI [25] of 4.39 µM and a GI50 [26] of 1610 nM. The TGI [26] was 5.86 µM, the GI50 [27] was 428 nM and the TGI [27] was 2.87 µM. For the same compound, the GI50 [28] was 953 nM, the TGI [28] was 2.3 µM and the GI50 [29] was 2.39 µM. It also gave a TGI [29] of 7.95 µM, a GI50 [30] of 2260 nM and a TGI [30] of 6.21 µM. The GI50 [31] was 1760 nM, the TGI [31] was 3.36 µM and the GI50 [32] was 763 nM. For the same compound, the TGI [32] was 5.41 µM, the GI50 [33] was 1290 nM and the TGI [33] was 22.9 µM. It also gave a GI50 [34] of 2960 nM, a TGI [34] of 9.27 µM and a GI50 [35] of 1180 nM. For the same compound, the TGI [35] was 2.62 µM, the GI50 [36] was 1220 nM and the TGI [36] was 3.09 µM. It also gave a GI50 [37] of 2.73 µM, a TGI [37] of 11.3 µM and a GI50 [38] of 1290 nM. The TGI [38] was 6.48 µM, the GI50 [39] was 1420 nM and the TGI [39] was 3.89 µM. For the same compound, the GI50 [40] was 1600 nM, the TGI [40] was 7.26 µM and the GI50 [41] was 1830 nM. It also gave a TGI [41] of 4.44 µM, a GI50 [42] of 1920 nM and a TGI [42] of 8.79 µM. It also gave a GI50 [43] of 1.97 µM, a TGI [43] of 9.41 µM and a GI50 [44] of 1070 nM. It also gave a TGI [44] of 4 µM, a GI50 [45] of 1180 nM and a TGI [45] of 5.1 µM. For the same compound, the GI50 [46] was 3340 nM, the TGI [46] was 11.9 µM and the GI50 [47] was 1820 nM. It also gave a TGI [47] of 5.95 µM, a GI50 [48] of 1050 nM and a TGI [48] of 4.11 µM. It also gave a GI50 [49] of 379 nM, a TGI [49] of 1.61 µM and a GI50 [50] of 1600 nM. The TGI [50] was 4.23 µM, the GI50 [51] was 1110 nM and the TGI [51] was 4.45 µM. For the same compound, the GI50 [52] was 2300 nM, the TGI [52] was 8.58 µM and the GI50 [53] was 1430 nM. The TGI [53] was 6.24 µM, the GI50 [54] was 1.21 µM and the TGI [54] was 3.6 µM. The GI50 [55] was 191 nM, the TGI [55] was 0.741 µM and the GI50 [56] was 1660 nM. For the same compound, the TGI [56] was 4.84 µM, the GI50 [57] was 769 nM and the TGI [57] was 2.69 µM.
Cn1ccnc1C(=O)/C=C/c1ccc(CNC(=O)c2ccc(Cl)cc2)cc1 gave a GI50 [1] of 3.92 µM, a TGI [1] of 13 µM and a GI50 [2] of 2620 nM. The TGI [2] was 7.73 µM, the GI50 [3] was 2.52 µM and the TGI [3] was 5.73 µM. For the same compound, the GI50 [4] was 2200 nM, the TGI [4] was 4.23 µM and the GI50 [5] was 2380 nM. For the same compound, the TGI [5] was 6.27 µM, the GI50 [6] was 2550 nM and the TGI [6] was 5.88 µM. It also gave a GI50 [7] of 2180 nM, a TGI [7] of 4170 nM and a GI50 [8] of 962 nM. The TGI [8] was 2.96 µM, the GI50 [9] was 626 nM and the TGI [9] was over 14.3 µM. The GI50 [10] was 2840 nM, the TGI [10] was 8.12 µM and the GI50 [11] was 2410 nM. For the same compound, the TGI [11] was 10.3 µM, the GI50 [12] was 3440 nM and the TGI [12] was over 14.3 µM. It also gave a GI50 [13] of 3380 nM, a TGI [13] of over 14.3 µM and a GI50 [14] of 1720 nM. It also gave a TGI [14] of 4.08 µM, a GI50 [15] of 3290 nM and a TGI [15] of 11.4 µM. It also gave a GI50 [16] of 2730 nM, a TGI [16] of 6.37 µM and a GI50 [17] of 1750 nM. It also gave a TGI [17] of 6.3 µM, a GI50 [18] of 3420 nM and a TGI [18] of 10.8 µM. For the same compound, the GI50 [19] was 3000 nM, the TGI [19] was over 14.3 µM and the GI50 [20] was 1820 nM. The TGI [20] was 6.42 µM, the GI50 [21] was 2630 nM and the TGI [21] was 6.51 µM. For the same compound, the GI50 [22] was 4980 nM, the TGI [22] was over 14300 nM and the GI50 [23] was 2200 nM. The TGI [23] was over 14.3 µM, the GI50 [24] was 2980 nM and the TGI [24] was 7.42 µM. The GI50 [25] was 2580 nM, the TGI [25] was 5.76 µM and the GI50 [26] was 3340 nM. It also gave a TGI [26] of over 14.3 µM, a GI50 [27] of 2470 nM and a TGI [27] of 4.83 µM. The GI50 [28] was 2280 nM, the TGI [28] was 5.05 µM and the GI50 [29] was 3.71 µM. It also gave a TGI [29] of over 14.3 µM, a GI50 [30] of 2130 nM and a TGI [30] of 4.19 µM. The GI50 [31] was 2450 nM, the TGI [31] was 6.05 µM and the GI50 [32] was 2610 nM. It also gave a TGI [32] of 6.31 µM, a GI50 [33] of 2150 nM and a TGI [33] of 5.37 µM. For the same compound, the GI50 [34] was 2260 nM, the TGI [34] was 4.5 µM and the GI50 [35] was 2230 nM. It also gave a TGI [35] of 4.65 µM, a GI50 [36] of 2070 nM and a TGI [36] of 4.56 µM. The GI50 [37] was 3.6 µM, the TGI [37] was over 14.3 µM and the GI50 [38] was 4150 nM. For the same compound, the TGI [38] was over 14.3 µM, the GI50 [39] was 3960 nM and the TGI [39] was over 14.3 µM. For the same compound, the GI50 [40] was 3400 nM, the TGI [40] was 11.6 µM and the GI50 [41] was 2430 nM. The TGI [41] was 5.96 µM, the GI50 [42] was 2060 nM and the TGI [42] was 4.12 µM. For the same compound, the GI50 [43] was 4.03 µM, the TGI [43] was over 14.3 µM and the GI50 [44] was 3120 nM. It also gave a TGI [44] of 10.2 µM, a GI50 [45] of 2680 nM and a TGI [45] of 6.47 µM. It also gave a GI50 [46] of 2390 nM, a TGI [46] of 5.13 µM and a GI50 [47] of 3360 nM. It also gave a TGI [47] of 14.2 µM, a GI50 [48] of 2800 nM and a TGI [48] of 7.18 µM. The GI50 [49] was 2410 nM, the TGI [49] was 5.1 µM and the GI50 [50] was 2780 nM. For the same compound, the TGI [50] was 7 µM, the GI50 [51] was 4300 nM and the TGI [51] was over 14.3 µM. For the same compound, the GI50 [52] was 1840 nM, the TGI [52] was 3.74 µM and the GI50 [53] was 2530 nM. It also gave a TGI [53] of 5.31 µM, a GI50 [54] of 5.05 µM and a TGI [54] of over 14.3 µM. The GI50 [55] was 3130 nM, the TGI [55] was 12.9 µM and the GI50 [56] was 3820 nM. The TGI [56] was 12.4 µM, the GI50 [57] was 1610 nM and the TGI [57] was 5.39 µM.
